Data as given in publication PMC11489721 (Communications Chemistry, 2024).
Where a name gives a salt, the structure may show the parent alone. Read-outs that look alike come from different tables or passages of the source. One block for each compound: values may come before it.

What was measured:
[1] = target: T1, heterodimeric receptor (T1R2/T1R3) (Homo sapiens, UniProt Q7RTX0+Q8TE23); assay: Effect of GTP and GDP on radioligand binding; conditions: for Inhibition of [3H]-Lactisole binding: radioligand [3H]-lactisole
T1 sequence (Q8TE23 20-839): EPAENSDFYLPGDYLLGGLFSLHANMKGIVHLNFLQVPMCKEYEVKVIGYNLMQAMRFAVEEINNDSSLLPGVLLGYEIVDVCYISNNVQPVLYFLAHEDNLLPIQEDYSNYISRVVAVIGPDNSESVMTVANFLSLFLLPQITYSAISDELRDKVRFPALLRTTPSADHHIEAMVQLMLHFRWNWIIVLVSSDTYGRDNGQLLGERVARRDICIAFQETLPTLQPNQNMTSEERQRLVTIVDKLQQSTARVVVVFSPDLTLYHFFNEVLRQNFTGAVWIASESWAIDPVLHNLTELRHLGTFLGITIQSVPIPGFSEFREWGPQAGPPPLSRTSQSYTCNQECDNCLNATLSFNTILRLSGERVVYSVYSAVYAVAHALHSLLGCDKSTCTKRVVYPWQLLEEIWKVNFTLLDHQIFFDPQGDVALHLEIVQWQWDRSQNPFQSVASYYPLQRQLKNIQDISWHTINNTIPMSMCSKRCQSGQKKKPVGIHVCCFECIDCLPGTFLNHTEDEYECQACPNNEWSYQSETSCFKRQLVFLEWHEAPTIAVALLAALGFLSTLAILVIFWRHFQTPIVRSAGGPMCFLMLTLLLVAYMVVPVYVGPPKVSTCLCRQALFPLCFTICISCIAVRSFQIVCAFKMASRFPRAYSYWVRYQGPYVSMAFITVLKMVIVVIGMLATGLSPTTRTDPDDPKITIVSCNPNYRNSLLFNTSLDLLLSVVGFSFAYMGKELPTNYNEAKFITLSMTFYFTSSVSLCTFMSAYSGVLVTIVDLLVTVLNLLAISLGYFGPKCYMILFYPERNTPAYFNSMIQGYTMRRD
T1 sequence (Q7RTX0 21-852): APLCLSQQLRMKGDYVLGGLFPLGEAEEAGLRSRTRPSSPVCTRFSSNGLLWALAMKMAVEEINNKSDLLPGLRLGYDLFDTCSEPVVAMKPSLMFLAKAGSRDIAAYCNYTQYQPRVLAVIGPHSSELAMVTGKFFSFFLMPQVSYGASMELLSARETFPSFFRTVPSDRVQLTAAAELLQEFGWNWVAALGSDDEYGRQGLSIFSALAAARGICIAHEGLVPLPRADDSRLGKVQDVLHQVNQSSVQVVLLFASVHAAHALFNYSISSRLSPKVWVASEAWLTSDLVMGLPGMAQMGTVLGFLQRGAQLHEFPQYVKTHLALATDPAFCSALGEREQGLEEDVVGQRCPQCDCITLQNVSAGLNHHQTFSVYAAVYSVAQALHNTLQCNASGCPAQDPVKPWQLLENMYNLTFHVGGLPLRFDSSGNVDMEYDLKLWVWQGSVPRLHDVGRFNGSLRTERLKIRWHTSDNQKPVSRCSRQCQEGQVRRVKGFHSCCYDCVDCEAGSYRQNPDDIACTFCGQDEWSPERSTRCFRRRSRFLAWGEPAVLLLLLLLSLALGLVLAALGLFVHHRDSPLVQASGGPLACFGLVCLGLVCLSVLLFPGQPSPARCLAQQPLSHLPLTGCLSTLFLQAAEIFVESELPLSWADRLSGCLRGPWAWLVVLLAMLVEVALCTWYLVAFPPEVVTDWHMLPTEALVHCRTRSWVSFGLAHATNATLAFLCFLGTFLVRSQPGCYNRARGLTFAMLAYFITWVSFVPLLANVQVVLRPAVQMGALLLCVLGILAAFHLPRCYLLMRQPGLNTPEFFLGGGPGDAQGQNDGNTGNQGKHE

[2] = cited from earlier work
[3] = target: T2, human T1R2/T1R3 heterodimer sweet taste receptors (Homo sapiens, UniProt Q7RTX0+Q8TE23); assay: FLOWER label-free binding to stabilized receptor on microtoroid
T2 sequence (Q8TE23 20-839): T1 sequence (Q8TE23 20-839)
T2 sequence (Q7RTX0 21-852): T1 sequence (Q7RTX0 21-852)

[4] = target: T3, heterodimeric receptor (T1R2/T1R3), TMD2 binding site (Homo sapiens, UniProt Q7RTX0+Q8TE23); assay: Competition binding with [3H]-Perillartine as radioligand; conditions: for Ki (mM): radiolabeled ligand perillartine, TMD2 binding, Table 6; for Competitive inhibition with perillartine: radioligand [3H]-Perillartine
T3 sequence (Q8TE23 20-839): T1 sequence (Q8TE23 20-839)
T3 sequence (Q7RTX0 21-852): T1 sequence (Q7RTX0 21-852)

[5] = target: T4, heterodimeric receptor (T1R2/T1R3), presumed VFD2 binding site (Homo sapiens, UniProt Q7RTX0+Q8TE23); assay: Competition binding with [3H]-Rebaudioside B as radioligand; conditions: for Competitive inhibition with RebB: radioligand [3H]-Rebaudioside B; for Ki (mM): radiolabeled ligand RebB, VFD2 binding, Table 5
T4 sequence (Q8TE23 20-839): T1 sequence (Q8TE23 20-839)
T4 sequence (Q7RTX0 21-852): T1 sequence (Q7RTX0 21-852)

[6] = target: human sweet taste receptor; conditions: DMR assay; cited from earlier work
[7] = target: human sweet taste receptor; conditions: FLIPR assay; cited from earlier work
[8] = target: T5, heterodimeric receptor (T1R2/T1R3), TMD3 binding site (Homo sapiens, UniProt Q7RTX0+Q8TE23); assay: Competition binding with [3H]-lactisole as radioligand; conditions: for Competitive inhibition with lactisole: radioligand [3H]-lactisole
T5 sequence (Q8TE23 20-839): T1 sequence (Q8TE23 20-839)
T5 sequence (Q7RTX0 21-852): T1 sequence (Q7RTX0 21-852)

[9] = system: bovine taste bud cells; conditions: cited from earlier work
[10] = target: T6, heterodimeric receptor (T1R2/T1R3), VFD2 and VFD3 (Homo sapiens, UniProt Q7RTX0+Q8TE23); assay: Kinetic binding of [14C]-sucrose, taste bud cell membranes
T6 sequence (Q8TE23 20-839): T1 sequence (Q8TE23 20-839)
T6 sequence (Q7RTX0 21-852): T1 sequence (Q7RTX0 21-852)

[11] = target: T7, heterodimeric receptor (T1R2/T1R3), presumed VFD2 site (Homo sapiens, UniProt Q7RTX0+Q8TE23); assay: Kinetic binding of [3H]-Rebaudioside B, taste bud cell membranes
T7 sequence (Q8TE23 20-839): T1 sequence (Q8TE23 20-839)
T7 sequence (Q7RTX0 21-852): T1 sequence (Q7RTX0 21-852)

[12] = target: human T1R2/T1R3 sweet taste receptor; conditions: HEK293 stably expressing T1R2/T1R3, FLIPR calcium mobilization; cited from earlier work
[13] = target: T8, heterodimeric receptor (T1R2/T1R3), TMD2 site (Homo sapiens, UniProt Q7RTX0+Q8TE23); assay: Kinetic binding of [3H]-Perillartine, taste bud cell membranes
T8 sequence (Q8TE23 20-839): T1 sequence (Q8TE23 20-839)
T8 sequence (Q7RTX0 21-852): T1 sequence (Q7RTX0 21-852)

[14] = target: human T1R2; conditions: human T1R2, intrinsic fluorescence; cited from earlier work
[15] = system: human T1R2/T1R3 heterodimers; conditions: transiently transfected, fluorescent calcium biosensor; cited from earlier work
[16] = from kinetic binding, ratio koff/kon
[17] = read-out: binding constant Kd, TMD3 open (+C20), 10 µM C20
[18] = read-out: binding constant Kd, TMD3 open (No C20)

Compound: Rebaudioside B [RebB]
Sweetness at 300 ppm [2]: 5.20

Compound: Nc1nc2c(ncn2[C@@H]2O[C@H](COP(=O)(O)OP(=O)(O)O)[C@@H](O)[C@H]2O)c(=O)[nH]1 [GDP, guanosine diphosphate]
Inhibition of [3H]-Lactisole binding [1]: No inhibition
IC50 ([1]; read-out: IC50, inhibition of Rebaudioside B binding, radioligand [3H]-Rebaudioside B): 2150 µM

Compound: N=C(N)NC(=O)c1nc(Cl)c(N)nc1N [Amiloride, amiloride HCL]
Ki (mM) [4]: Ambiguous
Competitive inhibition with perillartine [4]: did not show inhibition
Ki [5]: 1350 µM
Competitive inhibition with RebB [5]: positive inhibition

Compound: OC[C@H]1O[C@@](CO)(O[C@H]2O[C@H](CO)[C@@H](O)[C@H](O)[C@H]2O)[C@@H](O)[C@@H]1O [sucrose]
Kd [9]: 1100 µM

Compound: C=C1C[C@@]23CC[C@H]4[C@@](C)(CCC[C@@]4(C)C(=O)O[C@@H]4O[C@H](CO)[C@@H](O)[C@H](O)[C@H]4O)[C@@H]2CC[C@]1(O[C@@H]1O[C@H](CO)[C@@H](O)[C@H](O[C@@H]2O[C@H](CO)[C@@H](O)[C@H](O)[C@H]2O)[C@H]1O[C@@H]1O[C@H](CO)[C@@H](O)[C@H](O)[C@H]1O)C3 [RebA]
Sweetness at 300 ppm [2]: 5.90
EC50 [6]: 57 µM
EC50 [7]: 29 µM
EC50 [12]: 14.4 µM

Compound: OC[C@H]1OC(O)[C@H](O)[C@@H](O)[C@@H]1O (stereo partly shown) [glucose]
Kd [9]: 3400 µM

Compound: C=C(C)[C@@H]1CC=C(/C=N/O)CC1 [Perillartine]
Kd [14]: 373 µM
EC50 [12]: 1.45 µM
EC50 [15]: 2.54 µM

More lines, main results first:

IC50 ([1]; IC50, inhibition of Rebaudioside B binding, radioligand [3H]-Rebaudioside B): 9220 µM
IC50 ([1]; IC50, inhibition of perillartine binding, radioligand [3H]-Perillartine): 13200 µM
Inhibition of [3H]-Lactisole binding [1]: No inhibition
Compound: Nc1nc2c(ncn2[C@@H]2O[C@H](COP(=O)(O)OP(=O)(O)OP(=O)(O)O)[C@@H](O)[C@H]2O)c(=O)[nH]1 [GTP, guanosine triphosphate]

Hill slope nH ([3]; TMD2 open (No C20)): 0.36
Hill slope nH ([3]; TMD3 open (No C20)): 0.20
Kd ([3]; binding constant Kd, TMD2 open (No C20)): 2400 nM
Kd ([3]; binding constant Kd, TMD3 open (+C20), 10 µM C20): 26 nM
Kd ([3]; binding constant Kd, TMD3 open (No C20)): 3000 nM
Compound: C=C1C[C@@]23CC[C@H]4[C@@](C)(CCC[C@@]4(C)C(=O)O[C@@H]4O[C@H](CO)[C@@H](O)[C@H](O)[C@H]4O)[C@@H]2CC[C@]1(O[C@@H]1O[C@H](CO)[C@@H](O)[C@H](O)[C@H]1O)C3 [Rubu, Rubusoside]
Sweetness at 300 ppm [2]: 3.87

Competitive inhibition with lactisole [8]: do not compete
Ki (mM) [4]: Ambiguous
Competitive inhibition with perillartine [4]: did not show inhibition
Ki (mM) [5]: Ambiguous
Competitive inhibition with RebB [5]: did not show strong inhibition
Compound: CC(C)Oc1ccc(NC(=S)NCc2ccc[nH]2)cc1 [S819, 1-((1H-pyrrol-2-yl)methyl)-3-(4-isopropoxyphenyl)thiourea]
EC50 [6]: 0.7 µM
EC50 [7]: 0.07 µM

kon ([10]; [14C]-sucrose radioligand): 0.251 M⁻¹ s⁻¹
koff ([10]; dissociation by excess cold sucrose at 60 min): 0.003105 s⁻¹
Kd [10, 16]: 12300 µM
Compound: OC[C@H]1O[C@@](CO)(O[C@H]2O[C@H](CO)[C@@H](O)[C@H](O)[C@H]2O)[C@@H](O)[C@@H]1O [[^14C]-sucrose, [^14C]-Sucrose]

kon ([11]; [3H]-Rebaudioside B radioligand, room temperature): 1.53 M⁻¹ s⁻¹
koff ([11]; dissociation by 1000-fold excess cold Rebaudioside B at 60 min): 0.008868 s⁻¹
Kd [11, 16]: 5800 µM
Compound: [^3H]-Rebaudioside B

kon ([13]; [3H]-Perillartine radioligand): 3071.47 M⁻¹ s⁻¹
koff ([13]; dissociation by excess cold Perillartine at 60 min): 0.008895 s⁻¹
Kd [13, 16]: 2.9 µM
Compound: [^3H]-Perillartine [[^3H]-Perrilartine]

Hill slope nH ([3]; TMD2 open (+C20)): 0.75
Hill slope nH ([3]; TMD2 open (No C20)): 0.30
Hill slope nH ([3]; TMD3 open (No C20)): 0.55
Kd ([3]; read-out: binding constant Kd, TMD2 open (+C20), 10 µM C20): 0.28 nM
Kd [3, 17]: 2.6 nM
Kd [3, 18]: 22 nM
Ki ([8]; radiolabeled ligand lactisole, TMD3 binding, Table 4): 11800 µM
Competitive inhibition with lactisole [8]: positive inhibition
Ki (mM) [4]: Ambiguous
Ki (mM) [5]: Ambiguous
Competitive inhibition with RebB [5]: ambiguous binding inhibition
Compound: C=C1C[C@@]23CC[C@H]4[C@@](C)(CCC[C@@]4(C)C(=O)O[C@@H]4O[C@H](CO)[C@@H](O)[C@H](O[C@@H]5O[C@H](CO)[C@@H](O)[C@H](O)[C@H]5O)[C@H]4O[C@@H]4O[C@H](CO)[C@@H](O)[C@H](O)[C@H]4O)[C@@H]2CC[C@]1(O[C@@H]1O[C@H](CO)[C@@H](O)[C@H](O[C@@H]2O[C@H](CO)[C@@H](O)[C@H](O)[C@H]2O)[C@H]1O[C@@H]1O[C@H](CO)[C@@H](O)[C@H](O)[C@H]1O)C3 [RebM, Rebaudioside M]
Sweetness at 300 ppm [2]: 6.55
EC50 [12]: 29.5 µM

Hill slope nH ([3]; TMD3 open (No C20)): 0.22
Kd [3, 17]: 0.046 nM
Kd [3, 18]: 2.8 nM
Compound: C=C1C[C@@]23CC[C@H]4[C@@](C)(CCC[C@@]4(C)C(=O)O[C@@H]4O[C@H](CO)[C@@H](O)[C@H](O)[C@H]4O[C@@H]4O[C@H](CO)[C@@H](O)[C@H](O)[C@H]4O)[C@@H]2CC[C@]1(O[C@@H]1O[C@H](CO)[C@@H](O)[C@H](O[C@@H]2O[C@H](CO)[C@@H](O)[C@H](O)[C@H]2O)[C@H]1O[C@@H]1O[C@H](CO)[C@@H](O)[C@H](O)[C@H]1O)C3 [RebD, Rebaudioside D]
Sweetness at 300 ppm [2]: 6.15
